Columns and labels:
[1] = test system: Human alphaherpesvirus 1; assay: Antiviral activity against Herpes simplex virus 1 KOS infected in HEL cells assessed as inhibition of virus-induced cytopathic effect measured after 2 to 3 days post-infection; assay type: functional, organism-based; conditions: Human alphaherpesvirus 1, KOS
[2] = test system: Human alphaherpesvirus 1; assay: Antiviral activity against ACV-resistant thymidine kinase deficient Herpes simplex virus 1 KOS infected in HEL cells assessed as inhibition of virus-induced cytopathic effect measured after 2 to 3 days post-infection; assay type: functional, organism-based; conditions: Human alphaherpesvirus 1, KOS
[3] = test system: Human alphaherpesvirus 2; assay: Antiviral activity against Herpes simplex virus 2 G infected in HEL cells assessed as inhibition of virus-induced cytopathic effect measured after 2 to 3 days post-infection; assay type: functional, organism-based; conditions: Human alphaherpesvirus 2, strain G
[4] = test system: Human alphaherpesvirus 3; assay: Antiviral activity against thymidine kinase expressing Varicella-Zoster virus Oka assessed as inhibition of plaque formation measured after 5 days post-infection; assay type: functional, organism-based; conditions: Human alphaherpesvirus 3, strain Oka vaccine, 120 h
[5] = test system: Human alphaherpesvirus 3; assay: Antiviral activity against thymidine kinase deficient Varicella-Zoster virus 07-1 assessed as inhibition of plaque formation measured after 5 days post-infection; assay type: functional, organism-based; conditions: Human alphaherpesvirus 3, 07-1, 120 h
[6] = test system: Human betaherpesvirus 5; assay: Antiviral activity against Human cytomegalovirus AD169 infected in HEL cells assessed as inhibition of virus-induced cytopathic effect measured after 6 to 7 days post-infection; assay type: functional, organism-based; conditions: Human betaherpesvirus 5, AD169, HEL
[7] = test system: Human betaherpesvirus 5; assay: Antiviral activity against Human cytomegalovirus Davis infected in HEL cells assessed as inhibition of virus-induced cytopathic effect measured after 6 to 7 days post-infection; assay type: functional, organism-based; conditions: Human betaherpesvirus 5, Davis
[8] = Cytotoxicity against HEL cells assessed as morphological changes after 3 days by microscopic analysis; assay type: cell-based; conditions: human
[9] = Cytotoxicity against HEL cells assessed as reduction in cell viability after 3 days by coulter counting method; assay type: cell-based; conditions: human
[10] = Half life in human plasma at 1 uM by HPLC-MS/MS analysis; assay type: ADME, cell-free
[11] = Half life in human liver microsomes at 0.1 uM in presence of NADPH-generating system by HPLC-MS/MS analysis; assay type: ADME, microsome
[12] = Selectivity index, ratio of CC50 for HEL cells to EC50 for Herpes simplex virus 1 KOS infected in HEL cells; assay type: toxicity, cell-based; conditions: human, read-out: Ratio CC50/EC50
[13] = Selectivity index, ratio of CC50 for HEL cells to EC50 for ACV-resistant thymidine kinase deficient Herpes simplex virus 1 KOS infected in HEL cells; assay type: toxicity, cell-based; conditions: human, read-out: Ratio CC50/EC50
[14] = Selectivity index, ratio of CC50 for HEL cells to EC50 for Herpes simplex virus 2 G infected in HEL cells; assay type: toxicity, cell-based; conditions: human, read-out: Ratio CC50/EC50
[15] = Selectivity index, ratio of CC50 for HEL cells to EC50 for thymidine kinase expressing Varicella-Zoster virus Oka infected in HEL cells; assay type: toxicity, cell-based; conditions: human, read-out: Ratio CC50/EC50
[16] = Selectivity index, ratio of CC50 for HEL cells to EC50 for thymidine kinase deficient Varicella-Zoster virus 07-1 infected in HEL cells; assay type: toxicity, cell-based; conditions: human, read-out: Ratio CC50/EC50
[17] = Selectivity index, ratio of CC50 for HEL cells to EC50 for Human cytomegalovirus AD169 infected in HEL cells; assay type: toxicity, cell-based; conditions: read-out: Ratio CC50/EC50
[18] = Selectivity index, ratio of CC50 for HEL cells to EC50 for Human cytomegalovirus Davis infected in HEL cells; assay type: toxicity, cell-based; conditions: read-out: Ratio CC50/EC50

| SMILES | EC50 [1] [nM] | EC50 [2] [nM] | EC50 [3] [nM] | EC50 [4] [nM] | EC50 [5] [nM] | EC50 [6] [nM] | EC50 [7] [nM] | MCC at 72 h [8] [µM] | CC50 at 72 h [9] [nM] | half-life at 1 µM [10] [min] | half-life at 0.1 µM [11] [min] | selectivity ratio [12] | selectivity ratio [13] | selectivity ratio [14] | selectivity ratio [15] | selectivity ratio [16] | selectivity ratio [17] | selectivity ratio [18] |
| --- | --- | --- | --- | --- | --- | --- | --- | --- | --- | --- | --- | --- | --- | --- | --- | --- | --- | --- |
| CCCCCOC(=O)[C@H](CC(C)C)NP1(=O)CO[C@@H](Cn2cnc3c(N)ncnc32)CO1 (stereo partly drawn) | 1.3 | 1.3 | 1.9 | 0.47 | 0.59 | 5.7 | 3.8 | 4.27 | 1620 | 84 | 16 |  |  |  |  |  |  |  |
| CCCCCOC(=O)[C@H](C)NP1(=O)CO[C@@H](Cn2cnc3c(N)ncnc32)CO1 (stereo partly drawn) | 20 | 10 | 17 | 2 | 4.3 | 64 | 65 | 23.5 | 3400 |  |  |  |  |  |  |  |  |  |
| CCCCCOC(=O)[C@@H](NP1(=O)CO[C@@H](Cn2cnc3c(N)ncnc32)CO1)C(C)C (stereo partly drawn) | 3 | 1.8 | 4.2 | 0.57 | 1.5 | 5.9 | 4.8 | 4.4 | 7760 |  |  |  |  |  |  |  |  |  |
| CCCCCOC(=O)[C@@H](NP1(=O)CO[C@@H](Cn2cnc3c(N)ncnc32)CO1)[C@@H](C)CC (stereo partly drawn) | 2 | 1.9 | 2.7 | 0.45 | 0.54 | 7 | 6.5 | 9.96 | 12000 |  |  | > 4400 | > 4400 | > 4400 | 20000 | 20000 | 1800 | 1800 |
| CCCCCOC(=O)[C@H](CCSC)NP1(=O)CO[C@@H](Cn2cnc3c(N)ncnc32)CO1 (stereo partly drawn) | 8.9 | 5.7 | 11 | 2.6 | 4 | 32 | 29 | 4.11 | 39600 |  |  |  |  |  |  |  |  |  |
| CCCCCOC(=O)[C@H](Cc1ccccc1)NP1(=O)CO[C@@H](Cn2cnc3c(N)ncnc32)CO1 (stereo partly drawn) | 3.5 | 1.5 | 2.3 | 0.52 | 3.2 | 31 | 17 | 9.29 | 30600 |  |  | > 4400 | > 4400 | > 4400 |  |  |  |  |
| CCCCCOC(=O)[C@@H](NP(=O)(CO[C@H](CO)Cn1cnc2c(N)ncnc21)N[C@H](C(=O)OCCCCC)C(C)C)C(C)C | 2.3 | 0.9 | 2.8 | 1.5 | 0.95 | 100 | 72 | 8.57 | 600 | > 120 | 4 |  |  |  |  |  |  |  |
| CCCCCOC(=O)C[C@H](NP1(=O)CO[C@@H](Cn2cnc3c(N)ncnc32)CO1)C(=O)OCCCCC (stereo partly drawn) | 3.2 | 7.3 | 2 | 1.4 | 1.5 | 27 | 9 | 13.6 | 2730 | 22 | 4 |  |  |  |  |  |  |  |
| CCCCCOC(=O)CC[C@H](NP1(=O)CO[C@@H](Cn2cnc3c(N)ncnc32)CO1)C(=O)OCCCCC (stereo partly drawn) | 1.2 | 1.2 | 2.5 | 0.58 | 0.95 | 14 | 7.6 | 13.2 | 520 |  |  |  |  |  |  |  |  |  |
| CCCCCOC(=O)CC(NP1(=O)COC(Cn2cnc3c(N)ncnc32)CO1)C(=O)OCCCCC (single isomer, unassigned) | 210 | 76 | 110 | 33 | 62 | 4390 | 1620 | > 18.5 | 11600 |  |  |  |  |  |  |  |  |  |
| Nc1nc2c(ncn2COCCO)c(=O)[nH]1 [ACYCLOVIR] |  |  |  |  |  |  |  | > 88.8 |  |  |  |  |  |  |  |  |  |  |
| O=c1[nH]c(=O)n([C@H]2C[C@H](O)[C@@H](CO)O2)cc1/C=C/Br [BRIVUDINE] |  | > 30000 | > 30000 | 53 | 22100 |  |  | > 30 | > 300000 |  |  |  |  |  |  |  |  |  |
| Nc1ccn(C[C@@H](CO)OCP(=O)(O)O)c(=O)n1 [CIDOFOVIR] | 4180 | 1950 | 2730 |  |  |  |  | > 71.6 | > 358000 |  |  |  |  |  |  |  |  |  |
| Nc1nc2c(ncn2COC(CO)CO)c(=O)[nH]1 [GANCICLOVIR] |  | > 29500 | 51 |  |  | 7410 |  | > 39.2 | > 319000 |  |  |  |  |  |  |  |  |  |
| Nc1nc2c(ncn2CCC(CO)CO)c(=O)[nH]1 [PENCICLOVIR] | 480 | > 79000 | 840 |  |  |  |  | > 79 | > 395000 |  |  |  |  |  |  |  |  |  |

— ChEMBL document CHEMBL4251741, “Amidate Prodrugs of Cyclic 9-(S)-[3-Hydroxy-2-(phosphonomethoxy)propyl]adenine with Potent Anti-Herpesvirus Activity” (ACS Med Chem Lett, 2018)
